The values below come from ChEMBL document CHEMBL3217678 (Medchemcomm, 2011).

One may read the IC50 as the point on the concentration scale where inhibition reaches its midpoint. High values mean lower potency, low ones higher potency. For orientation: half-life means the time needed for the level to fall by half in the phase considered. Read a low half-life as fast loss.

Active and inactive are the calls of the source.

In series [1] the target is T1, 26S proteasome (Homo sapiens) (UniProt Q99460+P49721+P20618+P28074+P28062+P28065+P28072+O00487+P25786+P25787+P25788+P25789+P28066+P60900+O14818+Q8TAA3+P40306+A5LHX3+P49720+P28070+Q99436+Q16186+P35998+P62191+P43686+P62333+P17980+P62195+Q13200+O43242+O00232+O00231+Q15008+P51665+Q9UNM6+P55036+P48556+P60896). Description: Inhibition of human 20S proteasome using Suc-LLVY-AMC as substrate assessed as decrease in enzyme velocity. Type of series: protein-complex assay.

In the next series the target is 26S proteasome. Description: Inhibition of human 20S proteasome using Suc-LLVY-AMC as substrate preincubated for 30 mins followed by substrate addition measured after 90 mins by fluorescence assay. Type of series: protein-complex assay.
Series [2] is described as follows: Half life in 100 fold molar excess of deuterated water in DMSO at 37 degC by [1H]-NMR analysis. Type of series: physicochemical.
The target of series [3] is T1, 26S proteasome (Homo sapiens). Description: Inhibition of 20S proteasome in human HeLa cells expressing GFP-tagged ubiquitin G76V mutant at 23 uM after 16 hrs by fluorescence assay. Type of series: cell-based.
Series [4] has the same target. As to conditions: HeLa, 26 nM.
Description: Inhibition of 20S proteasome in human HeLa cells expressing GFP-tagged ubiquitin G76V mutant at 26 nM after 16 hrs by fluorescence assay

Consider `CC(C)C[C@H](NC(=O)[C@H](Cc1ccccc1)NC(=O)c1cnccn1)c1nsc(=O)o1`, for which the inhibition result in series [1] was “Dose-dependent effect”. The same molecule returned a concentration for half-maximal inhibition (IC50) against 26S proteasome of 108 µM. Further, the half-life in series [2] is 156 h. In addition, the inhibition entry in series [3] is “Active”.

Take `CC(C)C[C@@H](NC(=O)[C@H](Cc1ccccc1)NC(=O)c1cnccn1)c1nsc(=O)o1`: in series [1], the inhibition entry was “Dose-dependent effect”. Besides, the half-inhibitory concentration (IC50) on 26S proteasome is 225 µM. Moreover, the inhibition entry in series [3] was “inactive”.

With `CC(C)C[C@H](NC(=O)[C@H](Cc1ccccc1)NC(=O)c1cnccn1)B(O)O` [BORTEZOMIB], the inhibition entry in series [4] was “Active”.

The molecule `COc1cccc(-c2nsc(=O)o2)c1` gave a half-life in series [2] of 20 h.
